In US8962624B2, “Morpholines as selective inhibitors of cytochrome P450 2A13” (University of Kansas, priority 2007, dated 2015):
Several values for one entry are separate records, joined by “and”; a condition that tells them apart may be missing. Identical values can stand only once. Counter-ions that a name gives are not always drawn. Like-named read-outs stand apart in the source and are kept apart here.

Key:
CYP2A13 = molecular target: T1, CYP2A13 (Homo sapiens, UniProt Q16696); assay: Spectral shift ligand binding titration (cuvette method) with purified CYP2A13dH; conditions: for Selectivity 2A6 Kd/2A13 Kd: (CYP2A6 Kd)/(CYP2A13 Kd), higher numbers are more selective
T1 construct: truncation of the non-catalytic N-terminal transmembrane helix and addition of a C-terminal 4× histidine tag; 4xHis (C); made in house; host or cells: E. coli
T1 sequence (Q16696 with tags, fused parts or gaps limits assumed): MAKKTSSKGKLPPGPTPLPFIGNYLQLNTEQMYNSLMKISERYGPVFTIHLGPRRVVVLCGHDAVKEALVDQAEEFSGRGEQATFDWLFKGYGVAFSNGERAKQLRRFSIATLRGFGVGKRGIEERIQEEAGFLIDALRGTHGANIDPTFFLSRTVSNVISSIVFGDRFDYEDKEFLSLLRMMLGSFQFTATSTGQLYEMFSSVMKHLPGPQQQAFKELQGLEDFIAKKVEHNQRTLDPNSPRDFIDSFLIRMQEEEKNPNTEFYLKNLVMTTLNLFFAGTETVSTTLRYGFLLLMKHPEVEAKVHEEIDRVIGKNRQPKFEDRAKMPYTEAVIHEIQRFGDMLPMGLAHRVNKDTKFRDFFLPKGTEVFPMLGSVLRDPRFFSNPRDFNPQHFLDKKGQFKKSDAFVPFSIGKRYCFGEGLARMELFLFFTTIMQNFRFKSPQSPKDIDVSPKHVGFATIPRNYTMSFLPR
Description: (§1) To date, virtually all attempts to characterize full-length mammalian cytochromes P450 have been restricted by the production of only small (nanomolar) amounts of protein. However, truncation of the non-catalytic N-terminal transmembrane helix and addition of a C-terminal 4× histidine tag allow us to recombinantly produce tens of milligrams of highly purified modified CYP2A13 and CYP2A6 proteins per liter of E. coli culture. These engineered versions of the proteins (CYP2A13dH and CYP2A6dH are not shown) are fully functional in both binding ligands and metabolism of substrates. Protein expression in E. coli is initiated with the addition of IPTG to media supplemented with the heme precursor aminolevulinic acid. After 48-72 hours this expression system yields approximately 500-1300 nmol (27-71 mg) of CYP2A13dH or CYP2A6dH per liter of bacterial culture. Briefly, P450 proteins are liberated from E, coli membranes using a specialized detergent and high salt conditions and subsequently purified using metal-affinity and carboxymethyl-sepharose (CM-sepharose) affinity chromatography. Overall purification yield is up to 14 mg of highly purified protein per liter of E. coli culture.
(§2) Cytochrome P4502A13dH was expressed and purified as previously described (J. Biol. Chem. (2007), 282(23)17306-17313). Briefly, CYP2A13 was solubilized from the membrane using 4.8 mM Cymal-5 detergent (Anatrace, Maumee, Ohio) and 0.3M NaCl followed by ultracentrifugation at 30,000 rpm for 60 minutes. The solubilized protein was applied to Ni^2+-agarose resin (Qiagen, Valencia, Calif.) and after extensive washing with Buffer A (0.1M potassium phosphate, pH 7.4, 20% glycerol, 0.2M sodium chloride, 4.8 mM cymal, 8 mM histidine), the protein was eluted using Buffer B (Buffer A containing 2 mM EDTA and 80 mM histidine). The fractions containing protein with absorbance at 415 nm were pooled, diluted 5-fold with Buffer C (5 mM potassium phosphate, pH 7.4, 20% glycerol, 4.8 mM Cymal-5), and loaded onto HiTrap CM-FF column. The column was washed extensively with Buffer C without the detergent. Purified CYP2A13 was eluted using Buffer C with 50 mM potassium phosphate and 500 mM NaCl. An average yield of 14 mgs of CYP2A13 was obtained per liter of E. coli culture, Cytochrome P4502A6dH was similarly prepared.
(§3) The UV/visible spectra of purified CYP2A13dH and CYP2A6dH have a Soret peak at 418 nm, indicative of a low-spin, six-coordinate configuration of the heme iron bound to an active site water molecule (FIG. 1A). When ligands bind in the active site they frequently displace the water from the iron, resulting in a shift to five-coordinate, high spin iron with a maximal absorbance 395 nm. For cytochrome P450 enzymes, one often records the spectrum shift that occurs as protein is titrated with ligand to determine ligand affinity (kd values) (FIG. 1B).
(§4) The compounds that induced spectral shifts close to that of the positive control (PEITC) were validated in the spectral shift assay using the low throughput cuvette method. CYP2A13 protein samples were diluted to a concentration of 1 μM in 100 mM potassium phosphate buffer (pH 7.4) and were divided equally between reference and sample 1 mL quartz cuvettes. Concentrated compound stocks were prepared in 100% DMSO and the sample baseline was taken from 300-500 nm before beginning the titration. Substrate was added to the sample cuvette, mixed, and allowed to equilibrate for 2 minutes. An equal amount of ethanol was added to the reference cuvette for every addition of compound stock to the sample. The total amount of ethanol was kept less than 2% for each titration. After each coumarin addition, difference spectra were recorded from 300-500 nm and the change maximum (˜420 nm) to the minimum (˜385 nm) was determined. Graphpad Prism 4 (Graphpad Software, San Diego, Calif.) was used to determine the Ks and ΔAmax with nonlinear least-squares regression fitting to the equation: […]

CYP2A6 = molecular target: T2, CYP2A6 (Homo sapiens, UniProt P11509); assay: Spectral shift ligand binding titration with purified CYP2A6dH; conditions: for Kd / 2A6 Av. Kd: Table 1, average Kd; for Kd: read-out: 2A6 Av. Kd; for binding to CYP2A6 in titration / spectral shift with CYP2A6: result in words
T2 construct: truncation of the non-catalytic N-terminal transmembrane helix and addition of a C-terminal 4× histidine tag; 4xHis (C); made in house; host or cells: E. coli
T2 sequence (P11509 with tags, fused parts or gaps limits assumed): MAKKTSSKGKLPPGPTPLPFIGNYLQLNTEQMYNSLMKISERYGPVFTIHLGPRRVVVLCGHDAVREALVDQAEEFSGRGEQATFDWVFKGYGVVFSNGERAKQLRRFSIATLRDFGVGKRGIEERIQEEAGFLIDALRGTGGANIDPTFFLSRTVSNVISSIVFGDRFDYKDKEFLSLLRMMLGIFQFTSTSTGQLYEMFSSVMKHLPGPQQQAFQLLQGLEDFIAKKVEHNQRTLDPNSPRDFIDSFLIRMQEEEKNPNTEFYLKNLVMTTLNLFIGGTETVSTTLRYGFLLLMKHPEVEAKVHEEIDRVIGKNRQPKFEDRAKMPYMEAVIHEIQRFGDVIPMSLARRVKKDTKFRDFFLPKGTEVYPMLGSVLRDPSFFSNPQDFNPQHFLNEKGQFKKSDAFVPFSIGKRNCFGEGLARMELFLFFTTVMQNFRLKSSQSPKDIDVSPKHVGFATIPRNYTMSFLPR
Description: as §1, §2, §3, §4

[1] = Table 1, average Kd, read-out: 2A13 Av. Kd
[2] = initial characterisation of the hits, read-out: initial Kd values, CYP2A13
[3] = multiple titrations, read-out: average Kd for CYP2A13

| Molecule | Selectivity 2A6 Kd/2A13 Kd (CYP2A13) | Kd (CYP2A13; [1]) [µM] | Kd (CYP2A6) [µM] | Kd (CYP2A13; [2]) [µM] | Kd (CYP2A13; [3]) | 2A6 Av. Kd (CYP2A6) | binding to CYP2A6 in titration (CYP2A6) | spectral shift with CYP2A6 (CYP2A6) | Kd (CYP2A13; text b152, unit inferred, multiple titrations, read-out: average Kd) [µM] | Kd (CYP2A13; Table 2, unit inferred, read-out: 2A13 Kd) [µM] |
| --- | --- | --- | --- | --- | --- | --- | --- | --- | --- | --- |
| 4-(2,3-dichlorobenzyl)-1,6-dimethylmorpholine [Compound 10] | 12.9 | 37.7 | > 486 | – | – | – | – | – | – | – |
| Clc1ccccc1CN1CCOCC1 [Compound 1, 4-(2-chlorobenzyl)morpholine] | high | – | – | 1.8 | 7.3 µM | No binding | no substantially binding | no spectral shift | – | – |
| Fc1cccc(Cl)c1CN1CCOCC1 [Compound 2, 4-(2-chloro-6-fluorobenzyl)morpholine] | high | – | – | – | ~5.8 µM and 5.8 µM | No binding | no binding | absolutely no spectral shift | – | – |
| Cc1ccccc1CN1CCOCC1 [Compound 3, 4-(2-methylbenzyl)morpholine] | high | 19.3 | – | 4 | 19.3 µM | No binding | no substantially binding | no spectral shift | 19.3 | – |
| Brc1ccccc1CN1CCOCC1 [Compound 4, 4-(2-bromobenzyl)morpholine] | high | 7 | – | – | – | No binding | – | – | – | – |
| Fc1ccccc1CN1CCOCC1 [Compound 5, 4-(2-fluorobenzyl)morpholine] | high | 72.5 | – | – | – | No binding | – | – | – | – |
| Clc1ccccc1CN1CCSCC1 [Compound 6, 4-(2-chlorobenzyl)thiomorpholine] | 15.5 | 10 | 155 | – | – | – | – | – | – | – |
| Clc1cccc(CN2CCOCC2)c1Cl [Compound 7, 4-(2,3-dichlorobenzyl)morpholine] | 27 | 28.5 | 788 | – | – | – | – | – | – | – |
| Clc1cccc(Cl)c1CN1CCOCC1 [Compound 8, 4-(2,6-dichlorobenzyl)morpholine] | 291 | 1.9 | 553 | – | – | – | – | – | – | – |
| Clc1ccc(CN2CCOCC2)c(Cl)c1 [Compound 9, 4-(2,4-dichlorobenzyl)morpholine] | 5.66 | 35 | 198 | – | – | – | – | – | – | – |
| C1CN(C2C3CC4CC(C3)CC2C4)CCO1 (centres unmarked) [Compound 31, 4-(2-adamantyl)morpholine hydrochloride] | – | – | – | – | – | – | – | – | – | 28.8 |
